Reference: patent US20220062383A1, “REGULATION OF A FOREIGN BODY RESPONSE” (THE JOHNS HOPKINS UNIVERSITY, priority 2019, published 2022)

What was measured:
[1] = system: fibrosis around PCL implants (volumetric muscle loss model); test: Histology and immunofluorescence (αSMA, picrosirius red) of fibrosis around PCL implants after treatment; format: in vivo, C57BL/6 mice; conditions: PCL implant; treatment 4 weeks after implantation; tissue at 6 weeks; vs isotype or vehicle control
Experimental: All animal procedures were performed in accordance with an approved JHU IACUC protocol. Female mice were aged six to eight weeks-old. Several strains were utilized, including wild type C57BL/6j (Jackson Laboratories, Stock #00064), Rag2/OT-II (Taconic Stock #11490), IL17A-/- and IL17RA-/- (courtesy of Dr. Yoichiro Iwakura, University of Tokyo, Tokyo, Japan and Dr. Tomas Mustelin, Amgen, Seattle, respectively). Defects in muscle for material implantation were created as previously described (68). The resulting bilateral muscle defects were filled with 30 mg of a synthetic material. Synthetic materials tested include PCL (particulate, Mn=50000 g/mol, mean particle size<600 μm, Polysciences), ultrahigh molecular weight PE (particulate, Mn=5000 k g/mol, mean particle size=150 μm, Goodfellow), medical graded Silicone (sheet, Summit Medical), PEG hydrogels. PEG hydrogels were made with polyethylene glycol-diacrylate (PEG-DA, Mn=3400). PEG-DA (Polysciences) in PBS at 10% w/v concentration was mixed with photoinitiator (Irgacure 2959 solubilized to 10% w/v in 70% ethanol) to a final concentration of 0.05%. A 50 μL volume solution was cast onto each well of a flat bottom 96 wells plate. The solution was photocrosslinked via UV light for 30 mins to form a hydrogel sheet. […] Co-administration of anti-I[…] and senolytic treatment were also evaluated. […]

[2] = system: foreign body response to PCL implants (volumetric muscle loss model); test: qRT-PCR gene expression in tissue of PCL-implanted mice after IL17A/F NAb and/or senolytic treatment; format: in vivo, C57BL/6 mice; conditions: PCL implant
Experimental: All animal procedures were performed in accordance with an approved JHU IACUC protocol. Female mice were aged six to eight weeks-old. Several strains were utilized, including wild type C57BL/6j (Jackson Laboratories, Stock #00064), Rag2/OT-II (Taconic Stock #11490), IL17A-/- and IL17RA-/- (courtesy of Dr. Yoichiro Iwakura, University of Tokyo, Tokyo, Japan and Dr. Tomas Mustelin, Amgen, Seattle, respectively). Defects in muscle for material implantation were created as previously described (68). The resulting bilateral muscle defects were filled with 30 mg of a synthetic material. Synthetic materials tested include PCL (particulate, Mn=50000 g/mol, mean particle size<600 μm, Polysciences), ultrahigh molecular weight PE (particulate, Mn=5000 k g/mol, mean particle size=150 μm, Goodfellow), medical graded Silicone (sheet, Summit Medical), PEG hydrogels. PEG hydrogels were made with polyethylene glycol-diacrylate (PEG-DA, Mn=3400). PEG-DA (Polysciences) in PBS at 10% w/v concentration was mixed with photoinitiator (Irgacure 2959 solubilized to 10% w/v in 70% ethanol) to a final concentration of 0.05%. A 50 μL volume solution was cast onto each well of a flat bottom 96 wells plate. The solution was photocrosslinked via UV light for 30 mins to form a hydrogel sheet. Both silicone and PEG hydrogels were morselized into particles with a scalpel and placed into the defect. Control implants were injected with 50 μL of PBS (as a no implant control). All materials were UV sterilized prior to use. Directly after surgery, mice were given subcutaneous carprofen (Rimadyl®, Zoetis) at 5 mg/kg for pain relief. Mice were euthanized, and their implants were extracted at different time points: 1, 3, 6, or 12-weeks post-surgery. Additional modes of implantation were subcutaneous and intra-muscular injection. Briefly, synthetic materials were implanted subcutaneously (30 mg) on both flanks of the mice, or injected directly into the quadricep muscles through a 16 G syringe (5 mg of materials). Total RNA was isolated from whole tissue using TRIzol reagent and Qiagen's RNeasy kits. qRT-PCR was performed using Power SYBR Green Master Mix (Applied Biosystems) or TaqMan Gene Expression Master Mix (Applied Biosystems) according to manufacturer's instructions. Briefly, 2 μg of total RNA was used to synthesize cDNA using Superscript IV VILO Master Mix (ThermoFisher Scientific). The cDNA concentration was set to 50 ng/well (in a total volume of 20 μL PCR reaction). The qRT-PCR reactions were performed on the StepOne Plus Real-Time PCR System (ThermoFisher Scientific) using manufacturer recommended settings for quantitative and relative expression. Mice received 100 μl intraperitoneal (IP) injections of anti-IL17A (100 μg/ml, Cat #P13705.15) and anti-IL17F (100 μg/ml, Cat #P56220.17) (provided by Amgen) or isotype control (rat IgG2a, ThermoFisher Scientific, Cat #02-9688) every other day for a week. IL6 blocking antibody was administrated at 100 μg/ml (BioXCell, clone MP5-20F3) per mouse per day for 5 consecutive days. For senolytic treatment, mice received IP and intramuscular (IM) injections of Navitoclax (100 mg/kg, Selleckchem, Cat #HY-10087) for 5 consecutive days or vehicle control (5% DMSO, 3% Tween 80 in PBS). Co-administration of anti-I[…] and senolytic treatment were also evaluated. All mice received treatments at 4-weeks post-surgery for a total of 5 injections (1 injection per day per mouse), and were harvested in the following 2 weeks. The nCounter differential gene expression system was used to assess readable transcripts via the nanoString PanCancer Immune Profiling Panel. We utilized the nSolver software (version 3.0, nanoString Technologies, Inc.). All analyses of qRT-PCR data utilized the Livak Method, wherein ΔΔCt values are calculated, and then reported as relative quantification values calculated by […] (69). Treatment data points are normalized to either healthy or saline treated controls. β2M was utilized as the reference gene. […]

[3] = treatment 4 weeks after implantation, tissue at 6 weeks
[4] = treatment at 4 weeks, 6 weeks after implantation

CC1(C)CCC(c2ccc(Cl)cc2)=C(CN2CCN(c3ccc(C(=O)NS(=O)(=O)c4ccc(N[C@H](CCN5CCOCC5)CSc5ccccc5)c(S(=O)(=O)C(F)(F)F)c4)cc3)CC2)C1 [Navi, Navitoclax]
αSMA immunofluorescence [1]: reduced
p16INK4a gene expression (senolysis) ([2]; one week after treatment, 6 weeks after implantation, p<0.0001): significantly decreased
Il17a (IL17) gene expression ([2]; treatment 4 weeks after implantation, 5 injections, tissue at 6 weeks, vs isotype or vehicle control): decreased
Collagen I gene expression [2, 3]: decreased
Tgfβ gene expression [2, 3]: decreased
Il16 gene expression [2, 4]: decreased
S100a4 gene expression [2, 4]: decreased
collagen III gene expression [2, 4]: decreased
